Source: patent US20250059171A1 (Hoffmann-La Roche Inc., priority 2021, published 2025)
pIC50: −log10 of the molar value.

How the values were obtained:
SARS-CoV-2 3CLpro = SARS-CoV-2 3CLpro (Severe acute respiratory syndrome coronavirus 2, UniProt P0DTD1); test: biochemical
HCoV-229E 3CLpro = HCoV-229E 3CLpro (Human coronavirus 229E, UniProt P0C6X1); test: HCoV-229E 3CLpro inhibition assay (FRET); type: biochemical
MERS-CoV 3CLpro = MERS-CoV 3CLpro (Middle East respiratory syndrome-related coronavirus, UniProt K9N7C7); test: biochemical
Chain of MERS-CoV 3CLpro (K9N7C7 3248-3553): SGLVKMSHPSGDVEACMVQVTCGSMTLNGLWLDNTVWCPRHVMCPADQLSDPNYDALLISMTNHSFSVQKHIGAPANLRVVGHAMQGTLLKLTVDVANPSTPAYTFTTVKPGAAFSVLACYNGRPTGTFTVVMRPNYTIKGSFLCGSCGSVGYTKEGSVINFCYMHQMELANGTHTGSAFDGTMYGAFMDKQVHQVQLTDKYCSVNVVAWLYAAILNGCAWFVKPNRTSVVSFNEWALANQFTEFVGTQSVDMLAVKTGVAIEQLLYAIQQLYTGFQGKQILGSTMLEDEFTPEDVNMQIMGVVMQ

SARS-CoV 3CLpro = SARS-CoV 3CLpro (Severe acute respiratory syndrome coronavirus, UniProt P0C6X7); test: biochemical

Chain of HCoV-229E 3CLpro (P0C6X1 2966-3267): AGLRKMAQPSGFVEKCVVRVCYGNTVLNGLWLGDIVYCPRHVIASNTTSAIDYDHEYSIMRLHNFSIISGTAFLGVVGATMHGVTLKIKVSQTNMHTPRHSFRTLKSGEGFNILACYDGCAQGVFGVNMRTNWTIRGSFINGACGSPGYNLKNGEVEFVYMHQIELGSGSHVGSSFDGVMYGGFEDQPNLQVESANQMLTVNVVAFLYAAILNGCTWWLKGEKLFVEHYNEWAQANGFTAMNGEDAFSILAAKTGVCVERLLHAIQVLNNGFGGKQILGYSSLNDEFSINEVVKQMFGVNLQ

Row | SMILES | pIC50 (SARS-CoV-2 3CLpro) | pIC50 (HCoV-229E 3CLpro) | pIC50 (MERS-CoV 3CLpro) | pIC50 (SARS-CoV 3CLpro)
1 | CC(C)(C)[C@H](NC(=O)C(F)(F)F)C(=O)N1C[C@H]2[C@@H]([C@H]1C(=O)NN(C[C@@H]1CCNC1=O)C(=O)[C@@H](F)Cl)C2(C)C [Example 19, N-[(1S)-1-[(1R,2S,5S)-2-[[[(2S)-2-chloro-2-fluoro-acetyl]-[[(3S)-2-oxopyrrolidin-3-yl]methyl]amino]carbamoyl]-6,6-dimethyl-3-azabicyclo[3.1.0]hexane-3-carbonyl]-2,2-dimethyl-propyl]-2,2,2-trifluoro-acetamide] | 7.89 | 7.57 | 7.04 | 7.82
2 | CCC(CC)[C@H](NC(=O)C(F)F)C(=O)N1C[C@@H]2CCC[C@@H]2[C@H]1C(=O)NN(C[C@@H]1CCCNC1=O)C(=O)[C@H](F)Cl [Example 174, N-[(1S)-1-[(3S,3aS,6aR)-3-[[[(2R)-2-chloro-2-fluoro-acetyl]-[[(3S)-2-oxo-3-piperidyl]methyl]amino]carbamoyl]-3,3a,4,5,6,6a-hexahydro-1H-cyclopenta[c]pyrrole-2-carbonyl]-2-ethyl-butyl]-2,2-difluoro-acetamide] | 8.00 | 7.54 | 6.91 | 7.92
3 | CC[C@H](C)[C@H](NC(=O)C1CC1(F)F)C(=O)N1C[C@@H]2CCC[C@@H]2[C@H]1C(=O)NN(C[C@@H]1CCNC1=O)C(=O)[C@H](F)Cl (mixture of isomers) [Example 41, Rac-2,2-difluoro-N-[(1S,2S)-2-methyl-1-[(3S,3aS,6aR)-3-[[[(2R)-2-chloro-2-fluoro-acetyl]-[[(3S)-2-oxopyrrolidin-3-yl]methyl]amino]carbamoyl]-3,3a,4,5,6,6a-hexahydro-1H-cyclopenta[c]pyrrole-2-carbonyl]butyl]cyclopropanecarboxamide] | 8.15 | 7.17 | 6.66 | 7.48
4 | CC[C@H](C)[C@H](NC(=O)C(C)(C)C)C(=O)N1C[C@H]2[C@@H]([C@H]1C(=O)NN(C[C@@H]1CCNC1=O)C(=O)[C@H](F)Cl)C2(C)C [Example 52, N-[(1S,2S)-1-[(1R,2S,5S)-2-[[[(2R)-2-chloro-2-fluoro-acetyl]-[[(3S)-2-oxopyrrolidin-3-yl]methyl]amino]carbamoyl]-6,6-dimethyl-3-azabicyclo[3.1.0]hexane-3-carbonyl]-2-methyl-butyl]-2,2-dimethyl-propanamide] | 8.00 | 7.66 | 7.24 | 7.82
5 | CC[C@H](C)[C@H](NC(=O)C(Cl)Cl)C(=O)N1C[C@H]2[C@@H]([C@H]1C(=O)NN(C[C@@H]1CCNC1=O)C(=O)[C@H](F)Cl)C2(C)C [Example 61, 2,2-dichloro-N-[(1S,2S)-1-[(1R,2S,5S)-2-[[[(2R)-2-chloro-2-fluoro-acetyl]-[[(3S)-2-oxopyrrolidin-3-yl]methyl]amino]carbamoyl]-6,6-dimethyl-3-azabicyclo[3.1.0]hexane-3-carbonyl]-2-methyl-butyl]acetamide] | 8.10 | 7.52 | 6.92 | 7.96
6 | CCC(CC)[C@H](NC(=O)C1(F)CC1)C(=O)N1CC(C)(C)C[C@H]1C(=O)NN(C[C@@H]1CCNC1=O)C(=O)[C@H](F)Cl [Example 138, N-[(1S)-1-[(2S)-2-[[[(2R)-2-chloro-2-fluoro-acetyl]-[[(3S)-2-oxopyrrolidin-3-yl]methyl]amino]carbamoyl]-4,4-dimethyl-pyrrolidine-1-carbonyl]-2-ethyl-butyl]-1-fluoro-cyclopropanecarboxamide] | 7.80 | 7.27 | 6.55 | 7.60
